Read-outs that look alike come from different tables or passages of the source.
Legend:
[1] = target: D5 dopamine receptor (Homo sapiens, UniProt P21918)
Procedure: (§1) These concentrations were tested in cell lines expressing select human cloned dopamine receptors (D2S, D3).

[2] = target: D1 dopamine receptor (Homo sapiens, UniProt P21728)
Procedure: as §1

[3] = system: Parkinson's disease patients; conditions: treatment of Parkinson's disease; cited from earlier work
[4] = system: monkeys treated with MPTP; conditions: monkey, in vivo
[5] = system: human subjects; conditions: cited from earlier work
[6] = system: monkeys treated with MPTP; conditions: cited from earlier work
[7] = system: rodents; conditions: single oral dose; cited from earlier work
[8] = system: male beagle dogs; conditions: based on dog data
[9] = system: monkeys; conditions: single oral dose; cited from earlier work
[10] = cited from earlier work
[11] = system: rodents; conditions: in vivo
[12] = system: restless legs syndrome patients; conditions: treatment of restless legs syndrome; cited from earlier work
[13] = system: dogs; conditions: single oral dose; cited from earlier work
[14] = target: D2 dopamine receptor; conditions: read-out: D2 binding, IC50, cited from earlier work
[15] = Lit.* Schneider & Mierau 1987 J. Med. Chem. 30: 494-498
[16] = Lit.** Wong & Shrikhande 2003 Society for Neuroscience Abstracts

Chain of D1 dopamine receptor (P21728 whole entry): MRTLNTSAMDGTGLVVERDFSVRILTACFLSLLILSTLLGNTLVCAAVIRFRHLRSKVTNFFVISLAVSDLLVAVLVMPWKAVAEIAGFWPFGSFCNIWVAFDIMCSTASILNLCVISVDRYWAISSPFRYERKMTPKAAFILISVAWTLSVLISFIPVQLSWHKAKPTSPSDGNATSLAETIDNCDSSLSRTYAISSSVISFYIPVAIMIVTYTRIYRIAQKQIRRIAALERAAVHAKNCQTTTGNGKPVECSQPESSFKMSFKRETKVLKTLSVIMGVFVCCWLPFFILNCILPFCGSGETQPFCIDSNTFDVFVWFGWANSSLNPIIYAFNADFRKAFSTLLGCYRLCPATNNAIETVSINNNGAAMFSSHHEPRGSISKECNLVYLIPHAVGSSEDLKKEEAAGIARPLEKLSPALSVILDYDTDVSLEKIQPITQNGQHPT
Chain of D5 dopamine receptor (P21918 whole entry): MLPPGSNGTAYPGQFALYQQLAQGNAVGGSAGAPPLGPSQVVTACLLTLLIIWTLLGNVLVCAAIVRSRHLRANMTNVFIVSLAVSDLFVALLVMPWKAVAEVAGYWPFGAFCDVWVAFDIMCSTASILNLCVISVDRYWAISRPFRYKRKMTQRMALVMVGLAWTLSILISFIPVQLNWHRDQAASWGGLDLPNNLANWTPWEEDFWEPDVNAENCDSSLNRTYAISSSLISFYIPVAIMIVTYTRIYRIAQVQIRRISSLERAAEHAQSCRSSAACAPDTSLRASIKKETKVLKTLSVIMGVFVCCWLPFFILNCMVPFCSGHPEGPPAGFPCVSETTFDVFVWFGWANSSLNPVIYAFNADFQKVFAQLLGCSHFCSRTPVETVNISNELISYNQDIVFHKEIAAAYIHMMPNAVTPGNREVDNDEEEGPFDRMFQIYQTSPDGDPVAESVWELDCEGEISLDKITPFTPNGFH

Structure (SMILES)	interaction with D5 dopamine receptor [1]	interaction with D1 dopamine receptor [2]	lowest effective oral dose with a significant effect versus placebo [3]	human dose equivalent to the lowest effective oral dose in monkeys [4]	human dose equivalent to the lowest effective oral dose in monkeys, 70 kg individual [4]	dose shown to cause somnolence ([5]; human subjects)	starting daily dose not tolerated ([5]; naïve patient)	lowest effective oral dose [6]	doses at which deaths occurred (and above) [7]	human equivalent dose of the NOAEL for a 70 kg individual [8]	human equivalence dose of the MTD ([8]; 70 kg human subject)	dose at which major excitation was displayed [9]	MRTD ([10]; FDA MRTD database)	MRTD ([10]; for a 70 lb. person)	human dose equivalent to the lethal dose in rodents [11]	human dose equivalent to the lethal dose in rodents, 70 kg individual [11]	lowest effective dose with a significant effect versus placebo [12]	dose at which vomiting occurred (and above) [13]	IC50 [14, 15]	IC50 [14, 16]
CCCN[C@H]1CCc2nc(N)sc2C1 [(S)-pramipexole, (6S)-4,5,6,7-tetrahydro-N6-propyl-2,6-benzothiazole-diamine]	no significant interaction	no significant interaction	[…]	[…]	[…]	[…]	[…]	0.053 mg/kg	[…]	0.05 mg	0.30 mg	3.5 mg/kg	[…]	[…]	[…]	500 to 850 mg	[…]	[…]	–	–

— patent US9849116B2 (KNOPP BIOSCIENCES LLC, priority 2008, dated 2017)
